Measured values from patent US20240091279A1, “COMBINATION THERAPY FOR INFLAMMATORY DISEASES” (University of lowa Research Foundation, priority 2022, published 2024).
Read-outs that look alike come from different tables or passages of the source.

Legend:
[1] = versus the original isoflavones; cited from earlier work
mouse model of MS = assay: Mouse model of MS, Example I; assay type: in vivo, mice; conditions: versus diet lacking phytoestrogen
[2] = tested on: experimental autoimmune encephalomyelitis (EAE); conditions: earlier published studies, cited from earlier work

## Oc1ccc([C@H]2COc3cc(O)ccc3C2)cc1 [S-equol]
[1]
  estrogenic activity: significantly higher estrogenic activity
Mouse model of MS
  disease severity: mimic some of the disease protective function
[2]
  EAE disease: sufficient to ameliorate EAE
[2]; listed as equol
  EAE disease: protect

## Parabacteroides distasonis
[2]
  EAE disease: sufficient to ameliorate EAE
